Laboratory results reported in patent US8124390B2, “Aromatic prenyltransferases, nucleic acids encoding same and uses therefor” (The Salk Institute for Biological Studies, priority 2005, dated 2012).

Legend:
[1] = tested on: Orf2; experiment: Detection of prenyltransferase activity of ORF2, TLC with UV 254 nm, incl. Mg2+ dependence; type: biochemical, Streptomyces sp. strain CL190; settings: for reaction products of prenyl acceptor with ORF2: additional studies of Example 5; for prenyltransferase activity of ORF2: 5 mM prenyl acceptor, 5 mM MgCl2, 4 hrs room temperature; for prenylated products with ORF2: 5 mM DHN2, 5 mM GPP
[2] = tested on: HypSc; experiment: Detection of prenyltransferase activity of HypSc (TLC); type: biochemical, Streptomyces coelicolor A3(2); settings: for reaction products of prenyl acceptor with hypSc: assay of Example 5 repeated with hypSc
Protocol: FIG. 7 relates to the functional evaluation of HypSc. Thus, HypSc prenyltransferase activity was assayed as described above with respect to FIG. 2A, using 1,6-DHN as a prenyl acceptor (in each of lanes 1-4), with no prenyl acceptor in lane 1, DMAPP in lanes 2 and 3, and GPP in lane 4. No Mg^2+ was used in lane 2. The samples were incubated overnight at room temperature.
In order to validate this model, HypSc was subcloned from genomic DNA, and over-expressed in E. coli as an octa-histidine tagged protein and purified for Ni^2+-chelation chromatography. The purified enzyme was then assayed for prenyltransferase activity using DMAPP and GPP as prenyl donors.
The assay described in Example 5 was repeated with hypSc and (a) 1,6-DHN (2), (b) 2,7-DHN (3), (c) daidzein ([…], 5), (d) genistein (5,7,4′-trihydroxyisoflavone, 8), (e) naringenin (5,7,4′-trihydroxyflavonone, 9), (f) olivetol (12), and (g) resveratrol (3,4′,5-trihydroxystilbene, 13).

[3] = tested on: Orf2; experiment: Promiscuous activity of ORF2 with flavonoids and other compounds, [14C]GPP TLC; type: biochemical, Streptomyces sp. strain CL190; settings: for Orf2 prenyltransferase activity in the presence of flavonoids, isoflavonoids and related compounds: GPP as prenyl donor, FIG. 2B; for function as substrates for Orf2 (converted into prenylated derivatives): purified recombinant Orf2 incubated with prenyl donor and prenyl acceptor, FIGS. 2A and 2B
Protocol: FIG. 2B illustrates the promiscuous activity of Orf2. Several assays were conducted, employing a variety of potential substrates, i.e., 1,3-DHN (1), 1,6-DHN (2), 2,7-DHN (3), 4-HPP (4) and several isoflavonoids and polyketide derivatives, including daidzein (7,4′-dihydroxyisoflavonone, 5), formononetin (7-hydroxy, 4′-methoxyisoflavonone, 6), fisetin (3,3′,4′,7-tetrahydroxyflavone, 7), genistein (5,7,4′-trihydroxyisoflavone, 8), naringenin (5,7,4′-trihydroxyflavonone, 9), flaviolin (10), olivetol (11), olivetolic acid (12), and resveratrol (3,4′,5-trihydroxystilbene, 13). The chemical structures of four reaction products (i.e., 1,6-dihydroxy 2-geranyl naphthalene (14), 1,6-dihydroxy 5-geranyl naphthalene (15), 6-geranyl naringenin (16) and 7-O-geranyl naringenin (17)) were determined by both MS and ^1H NMR analyses. The reaction buffer consisted of 50 mM HEPES (pH 7.5), 5 mM MgCl2, and 0.1 mM GPP, 0.009 mM [^14C]GPP, and 0.1 mM of each substrate, in a final volume of 20 μl. The reaction was initiated by adding 30 μg of Orf2 to the assay mixture. After incubation at 25° C. for 6 hours, the mixture was dried, and spotted on a silica gel TLC plate. The TLC plate was developed with a chloroform/methanol (15:1) solvent mixture. Reaction products were detected with a [^14C] imaging plate (Fuji Photo Film).
The reaction buffer employed contained 50 mM HEPES (pH 7.5), 5 mM DTT (as needed), 5 mM MgCl2, 0.1 mM of each prenyl acceptor, 0.1 mM GPP, and 0.01 mM [^14C]GPP in a final volume of 20 μl. The reaction was initiated by adding 20 μg of ORF2 protein to the assay mixture. After incubation at room temperature for 4 hrs., the reaction mixture was dried using SpeedVac and the dried residue was spotted on a silica gel TLC plate. The plate was developed with chloroform:methanol (15-30:1). Reaction products were detected with a phosphoimager. The compounds tested were daidzein, fisetin, formononetin, genistein, naringenin, 4-HPP and DHN2.

[4] = tested on: antibacterial; settings: Schutz, Phytochemistry 40:1273-1277 (1995); cited from earlier work

| Compound | reaction products of prenyl acceptor with hypSc [2] | reaction products of prenyl acceptor with ORF2 [1] | Orf2 prenyltransferase activity in the presence of flavonoids, isoflavonoids and related compounds [3] | function as substrates for Orf2 (converted into prenylated derivatives) [3] | other results |
| --- | --- | --- | --- | --- | --- |
| CC(C)=CCC/C(C)=C/COP(=O)(O)OP(=O)(O)O [GPP, geranyl diphosphate] |  |  |  |  | relative activity of Orf2 with prenyl donor ([1]; purified recombinant Orf2, prenyl donor DMAPP (C5), GPP (C10) or FPP (C15) with aromatic acceptors): highest relative activity |
| Oc1ccc(C=Cc2cc(O)cc(O)c2)cc1 [resveratrol, 3,4′,5-trihydroxystilbene] | 4-dimethylallyl-resveratrol | 4-geranyl-resveratrol | showed prenyltransferase activity |  |  |
| O=C(O)C(=O)Cc1ccc(O)cc1 [4-HPP, 4-hydroxyphenylpyruvate] |  |  |  | converted by Orf2 into a prenylated derivative |  |
| Oc1ccc2ccc(O)cc2c1 [2,7-DHN] | 1-dimethylallyl-2,7-DHN | 1-geranyl-2,7-DHN and 1,6-digeranyl-2,7-DHN |  | function as substrates | prenyltransferase activity of ORF2 ([1]; prenyl donor GPP): prenyltransferase activity was observed |
| Oc1cc(O)c2ccccc2c1 [1,3-DHN, 1,3-dihydroxynaphthalene] |  |  |  | function as substrates | prenyltransferase activity of ORF2 ([1]; either prenyl donor FPP or GPP): prenyltransferase activity was observed |
| N[C@@H](Cc1ccccc1)C(=O)O [phenylalanine] |  |  |  | did not serve as substrates |  |
| CCCCCc1cc(O)cc(O)c1 [olivetol] | 2-dimethylallyl-olivetol and 4-dimethylallyl-olivetol | 2-geranyl-olivetol and 4-geranyl-olivetol | active |  |  |
| O=C1C(O)=CC(=O)c2c(O)cc(O)cc21 [flaviolin, 2,5,7-trihydroxy-1,4-naphthoquinone] |  |  |  | function as substrates |  |
| Oc1ccc2c(O)cccc2c1 [1,6-DHN, 1,6-dihydroxynaphthalene] | 5-dimethylallyl-1,6-DHN | 5-geranyl-1,6-DHN and 2-geranyl-1,6-DHN |  | function as substrates | prenyltransferase activity of HypSc ([2]; DMAPP as prenyl donor, absence of Mg2+): Notable prenyltransferase activity was detected; prenylated products with ORF2 ([1]; absence of magnesium): no prenylated products were observed; prenylated products with ORF2 ([1]; presence of magnesium (5 mM MgCl2)): prenylated products were readily observed; prenyltransferase activity of ORF2 ([1]; either prenyl donor FPP or GPP): prenyltransferase activity was observed; prenylated products detected by thin layer chromatography ([1]; Orf2 incubated with 1,6-DHN and GPP): readily detected |
| CC(C)=CCC/C(C)=C/Cc1c(O)cc2c(c1O)C(=O)C[C@@H](c1ccc(O)cc1)O2 [6-geranyl naringenin] |  |  |  |  | antibacterial activity [4]: significant antibacterial activity |
| CCCCCc1cc(O)cc(O)c1C(=O)O [olivetolic acid] |  |  | active |  |  |
| O=c1c(-c2ccc(O)cc2)coc2cc(O)cc(O)c12 [genistein, 5,7,4′-trihydroxyisoflavone] | no reaction products detected | 7-O-geranyl-genistein | showed prenyltransferase activity |  |  |
| O=c1c(O)c(-c2ccc(O)c(O)c2)oc2cc(O)ccc12 [fisetin, 3,3′,4′,7-tetrahydroxyflavone] |  |  | little or no activity |  |  |
| N[C@@H](Cc1ccc(O)cc1)C(=O)O [tyrosine] |  |  |  | did not serve as substrates |  |
